Patent US11241428B2, “Heteroaryl amide derivatives as selective inhibitors of histone deacetylases 1 and/or 2(HDAC1-2)” (Medibiofarma, S.L., priority 2017, dated 2022)
pIC50: −log10 of the molar value.

Tests used:
HDAC2 = HDAC2 (Homo sapiens (Human), UniProt Q92769); test: biochemical HDAC assay (Reaction Biology Corp.), HDAC2; conditions: fluorogenic peptide RHKK(Ac)AMC; 10-dose, 3-fold dilution from 10 μM
Experimental: (§1) The inhibitory activities of compounds of present invention were determined using biochemical HDAC assays (Reaction Biology Corp. biochemical assay services). Compound with indicated doses was tested in the biochemical assays of HDAC 1, HDAC2, HDAC3, HDAC4, HDAC5, HDAC6, HDAC7, HDAC 8, HDAC9, HDAC10, and HDAC11 enzyme.
(§2) Compounds were tested in singlicate 10-dose IC50 mode with 3-fold serial dilution starting at 10 μM against 11 HDACs. HDAC reference compounds Trichostatin A (TSA) and TMP269 were tested in a 10-dose IC50 with 3-fold serial dilution starting at 10 μM.
(§3) Substrate for HDAC1,2,3,6,10: Fluorogenic peptide from p53 residues 379-382 (RHKK(Ac)AMC). Substrate for HDAC4,5,7,9, and 11: Fluorogenic HDAC Class2a Substrate (Trifluoroacetyl Lysine). Substrate for HDAC 8: Fluorogenic peptide from p53 residues 379-382 (RHK(Ac)K(Ac)AMC).
(§4) General Reaction Procedure: (Standard IC50 determination) • a. 2× enzyme was added to wells of reaction plate except to No Enzyme (No En) control wells. Add buffer in No En wells. • b. Compounds to be tested in 100% DMSO were added to the enzyme mixture by Acoustic technology (Echo550; nanoliter range). The mixture was spinned down and preincubated. • c. 2× Substrate Mixture (Fluorogenic HDAC Substrate and co-factor (500 μM of Nicotinamide adenine dinucleotide (NAD<+>) in all Sirt assay) were added to all reaction wells to initiate the reaction. The plates were spinned and shaken. • d. The plates were incubated for 1-2 hr. at 30° C. with seal. • e. Developer with Trichostatin A (or TMP269 or NAD<+>) was added to stop the reaction and to generate fluorescent color. • f. Fluorescence was read (excitatory, 360; emission, 460) using the EnVision Multilabel Plate Reader (Perkin Elmer) • g. Endpoint reading was taken for analysis after the development reaches plateau.
(§5) Data Analysis: The percentages of enzyme activity (relative to DMSO controls) and IC50 values were calculated using the GraphPad Prism 4 program based on a sigmoidal dose-response equation. The blank (DMSO) value was entered as 1.00E-12 of concentration for curve fitting.

HDAC3 = HDAC3 (Homo sapiens (Human), UniProt O15379); test: biochemical HDAC assay (Reaction Biology Corp.), HDAC3; conditions: fluorogenic peptide RHKK(Ac)AMC; 10-dose, 3-fold dilution from 10 μM
Experimental: as §1, §2, §3, §4, §5

HDAC10 = HDAC10 (Homo sapiens (Human), UniProt Q969S8); test: biochemical HDAC assay (Reaction Biology Corp.), HDAC10; conditions: fluorogenic peptide RHKK(Ac)AMC; 10-dose, 3-fold dilution from 10 μM
Experimental: as §1, §2, §3, §4, §5

HDAC8 = HDAC8 (Homo sapiens (Human), UniProt Q9BY41); test: biochemical HDAC assay (Reaction Biology Corp.), HDAC8; conditions: fluorogenic peptide RHK(Ac)K(Ac)AMC; 10-dose, 3-fold dilution from 10 μM
Experimental: as §1, §2, §3, §4, §5

HDAC 1 = HDAC 1 (Homo sapiens (Human), UniProt Q13547); test: biochemical HDAC assay (Reaction Biology Corp.), HDAC1; conditions: fluorogenic peptide RHKK(Ac)AMC; 10-dose, 3-fold dilution from 10 μM
Experimental: The inhibitory activities of compounds of present invention were determined using biochemical HDAC assays (Reaction Biology Corp. biochemical assay services). Compound with indicated doses was tested in the biochemical assays of HDAC 1, HDAC2, HDAC3, HDAC4, HDAC5, HDAC6, HDAC7, HDAC 8, HDAC9, HDAC10, and HDAC11 enzyme. Compounds were tested in singlicate 10-dose IC50 mode with 3-fold serial dilution starting at 10 μM against 11 HDACs. HDAC reference compounds Trichostatin A (TSA) and TMP269 were tested in a 10-dose IC50 with 3-fold serial dilution starting at 10 μM. Substrate for HDAC1,2,3,6,10: Fluorogenic peptide from p53 residues 379-382 (RHKK(Ac)AMC). Substrate for HDAC4,5,7,9, and 11: Fluorogenic HDAC Class2a Substrate (Trifluoroacetyl Lysine). Substrate for HDAC 8: Fluorogenic peptide from p53 residues 379-382 (RHK(Ac)K(Ac)AMC). General Reaction Procedure: (Standard IC50 determination) • a. 2× enzyme was added to wells of reaction plate except to No Enzyme (No En) control wells. Add buffer in No En wells. • b. Compounds to be tested in 100% DMSO were added to the enzyme mixture by Acoustic technology (Echo550; nanoliter range). The mixture was spinned down and preincubated. • c. 2× Substrate Mixture (Fluorogenic HDAC Substrate and co-factor (500 μM of Nicotinamide adenine dinucleotide (NAD<+>) in all Sirt assay) were added to all reaction wells to initiate the reaction. The plates were spinned and shaken. • d. The plates were incubated for 1-2 hr. at 30° C. with seal. • e. Developer with Trichostatin A (or TMP269 or NAD<+>) was added to stop the reaction and to generate fluorescent color. • f. Fluorescence was read (excitatory, 360; emission, 460) using the EnVision Multilabel Plate Reader (Perkin Elmer) • g. Endpoint reading was taken for analysis after the development reaches plateau. Data Analysis: The percentages of enzyme activity (relative to DMSO controls) and IC50 values were calculated using the GraphPad Prism 4 program based on a sigmoidal dose-response equation. The blank (DMSO) value was entered as 1.00E-12 of concentration for curve fitting.

HDAC6 = HDAC6 (Homo sapiens (Human), UniProt Q9UBN7); test: biochemical HDAC assay (Reaction Biology Corp.), HDAC6; conditions: fluorogenic peptide RHKK(Ac)AMC; 10-dose, 3-fold dilution from 10 μM
Experimental: as §1, §2, §3, §4, §5

Chain of HDAC10 (Q969S8 whole entry): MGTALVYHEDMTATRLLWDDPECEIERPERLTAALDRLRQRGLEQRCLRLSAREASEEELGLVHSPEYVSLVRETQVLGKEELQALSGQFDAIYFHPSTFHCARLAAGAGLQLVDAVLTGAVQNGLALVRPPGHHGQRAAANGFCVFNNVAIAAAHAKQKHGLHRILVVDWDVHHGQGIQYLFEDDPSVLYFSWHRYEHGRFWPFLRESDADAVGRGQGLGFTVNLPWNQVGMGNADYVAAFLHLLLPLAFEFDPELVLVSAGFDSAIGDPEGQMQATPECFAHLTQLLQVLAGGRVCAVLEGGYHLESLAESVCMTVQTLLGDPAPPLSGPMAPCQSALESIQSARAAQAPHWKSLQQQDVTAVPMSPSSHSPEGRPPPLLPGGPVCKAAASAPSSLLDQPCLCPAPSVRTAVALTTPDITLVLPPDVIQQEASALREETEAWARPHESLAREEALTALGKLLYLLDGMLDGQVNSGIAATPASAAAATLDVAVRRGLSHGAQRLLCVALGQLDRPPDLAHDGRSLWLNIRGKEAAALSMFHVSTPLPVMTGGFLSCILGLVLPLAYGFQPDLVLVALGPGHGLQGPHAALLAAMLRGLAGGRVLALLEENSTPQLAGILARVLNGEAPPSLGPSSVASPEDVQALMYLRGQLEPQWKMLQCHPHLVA
Chain of HDAC 1 (Q13547 whole entry, the tested form may be a part): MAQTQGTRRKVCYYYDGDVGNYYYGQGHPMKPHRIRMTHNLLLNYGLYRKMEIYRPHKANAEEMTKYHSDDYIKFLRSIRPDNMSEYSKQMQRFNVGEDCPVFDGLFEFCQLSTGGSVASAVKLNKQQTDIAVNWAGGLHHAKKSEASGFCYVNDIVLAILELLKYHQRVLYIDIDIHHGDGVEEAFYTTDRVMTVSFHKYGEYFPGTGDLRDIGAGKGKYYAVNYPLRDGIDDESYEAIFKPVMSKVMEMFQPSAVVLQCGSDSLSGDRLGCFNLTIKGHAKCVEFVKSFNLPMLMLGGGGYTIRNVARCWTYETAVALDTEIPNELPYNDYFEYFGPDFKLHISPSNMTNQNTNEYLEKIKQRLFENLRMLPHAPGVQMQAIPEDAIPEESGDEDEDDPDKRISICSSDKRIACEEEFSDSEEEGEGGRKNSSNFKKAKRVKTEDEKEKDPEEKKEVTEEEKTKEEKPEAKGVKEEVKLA
Chain of HDAC2 (Q92769 whole entry): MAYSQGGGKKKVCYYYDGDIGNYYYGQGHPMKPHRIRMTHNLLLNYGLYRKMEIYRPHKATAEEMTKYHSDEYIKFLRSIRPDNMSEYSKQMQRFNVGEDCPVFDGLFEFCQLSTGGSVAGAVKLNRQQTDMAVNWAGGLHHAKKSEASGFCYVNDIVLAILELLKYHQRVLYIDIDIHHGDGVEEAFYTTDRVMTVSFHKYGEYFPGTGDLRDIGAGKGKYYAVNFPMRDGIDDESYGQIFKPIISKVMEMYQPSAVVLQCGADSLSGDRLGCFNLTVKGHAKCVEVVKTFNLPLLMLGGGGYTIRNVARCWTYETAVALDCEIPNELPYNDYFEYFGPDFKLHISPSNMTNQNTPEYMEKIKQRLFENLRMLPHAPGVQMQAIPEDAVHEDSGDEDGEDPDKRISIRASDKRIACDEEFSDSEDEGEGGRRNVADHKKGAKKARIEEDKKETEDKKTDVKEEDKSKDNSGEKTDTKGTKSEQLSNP
Chain of HDAC8 (Q9BY41 whole entry): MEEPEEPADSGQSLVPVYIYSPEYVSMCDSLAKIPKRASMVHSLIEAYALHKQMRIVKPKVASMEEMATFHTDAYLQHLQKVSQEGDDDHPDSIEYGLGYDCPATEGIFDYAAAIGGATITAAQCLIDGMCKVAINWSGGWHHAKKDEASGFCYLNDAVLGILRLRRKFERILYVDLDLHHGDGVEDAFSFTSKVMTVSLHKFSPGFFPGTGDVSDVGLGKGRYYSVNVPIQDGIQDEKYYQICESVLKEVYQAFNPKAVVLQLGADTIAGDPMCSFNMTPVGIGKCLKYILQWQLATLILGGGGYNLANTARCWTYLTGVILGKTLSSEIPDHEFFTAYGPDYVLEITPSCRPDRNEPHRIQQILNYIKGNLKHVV
Chain of HDAC3 (O15379 whole entry): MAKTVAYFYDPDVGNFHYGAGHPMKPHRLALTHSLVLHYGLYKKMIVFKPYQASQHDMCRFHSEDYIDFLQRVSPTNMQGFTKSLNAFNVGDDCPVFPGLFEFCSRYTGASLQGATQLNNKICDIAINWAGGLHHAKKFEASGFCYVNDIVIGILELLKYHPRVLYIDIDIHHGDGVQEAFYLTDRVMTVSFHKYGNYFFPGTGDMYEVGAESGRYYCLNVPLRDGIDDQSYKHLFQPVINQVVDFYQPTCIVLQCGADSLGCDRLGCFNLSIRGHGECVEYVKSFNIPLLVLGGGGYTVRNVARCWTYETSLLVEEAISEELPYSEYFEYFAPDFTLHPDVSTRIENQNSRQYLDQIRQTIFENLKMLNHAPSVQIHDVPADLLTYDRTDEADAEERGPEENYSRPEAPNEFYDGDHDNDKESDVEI
Chain of HDAC3 (Q9Y618 395-489 partner): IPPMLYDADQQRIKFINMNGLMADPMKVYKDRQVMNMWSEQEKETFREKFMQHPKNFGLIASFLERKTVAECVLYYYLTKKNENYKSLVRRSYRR
Chain of HDAC6 (Q9UBN7 whole entry): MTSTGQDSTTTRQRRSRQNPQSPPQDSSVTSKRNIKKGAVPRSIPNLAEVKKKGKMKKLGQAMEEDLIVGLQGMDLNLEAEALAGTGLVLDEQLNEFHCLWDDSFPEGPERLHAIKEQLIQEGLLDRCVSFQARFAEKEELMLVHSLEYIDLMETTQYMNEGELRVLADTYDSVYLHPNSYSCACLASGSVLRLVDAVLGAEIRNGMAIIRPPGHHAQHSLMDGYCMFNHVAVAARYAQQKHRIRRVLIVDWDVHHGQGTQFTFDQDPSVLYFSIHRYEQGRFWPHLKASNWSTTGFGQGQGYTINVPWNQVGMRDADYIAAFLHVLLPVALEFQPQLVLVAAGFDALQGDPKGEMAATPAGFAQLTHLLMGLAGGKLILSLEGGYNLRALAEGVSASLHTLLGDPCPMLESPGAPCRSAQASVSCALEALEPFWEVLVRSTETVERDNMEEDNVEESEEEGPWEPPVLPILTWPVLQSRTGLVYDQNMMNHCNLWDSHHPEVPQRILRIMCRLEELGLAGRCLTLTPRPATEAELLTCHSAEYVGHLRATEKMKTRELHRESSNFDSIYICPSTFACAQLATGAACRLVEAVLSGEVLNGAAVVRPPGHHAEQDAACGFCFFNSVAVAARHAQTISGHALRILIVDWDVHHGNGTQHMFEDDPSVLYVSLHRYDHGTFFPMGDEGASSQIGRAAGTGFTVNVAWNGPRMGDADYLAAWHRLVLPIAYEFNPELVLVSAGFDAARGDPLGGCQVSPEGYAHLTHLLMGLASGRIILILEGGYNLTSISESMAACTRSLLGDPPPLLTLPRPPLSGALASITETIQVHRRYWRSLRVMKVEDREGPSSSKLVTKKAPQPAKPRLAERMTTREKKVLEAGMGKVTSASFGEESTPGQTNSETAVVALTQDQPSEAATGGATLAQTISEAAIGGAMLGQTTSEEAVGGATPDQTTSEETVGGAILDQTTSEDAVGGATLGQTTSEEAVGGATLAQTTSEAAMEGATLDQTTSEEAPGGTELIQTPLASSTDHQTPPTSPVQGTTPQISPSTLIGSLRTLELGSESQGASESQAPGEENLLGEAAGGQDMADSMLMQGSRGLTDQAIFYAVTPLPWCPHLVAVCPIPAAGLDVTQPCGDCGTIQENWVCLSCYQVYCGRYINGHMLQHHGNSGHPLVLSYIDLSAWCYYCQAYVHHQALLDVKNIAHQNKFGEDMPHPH

| Compound | pIC50 (HDAC2) | pIC50 (HDAC3) | pIC50 (HDAC10) | pIC50 (HDAC8) | pIC50 (HDAC 1) | pIC50 (HDAC6) |
| --- | --- | --- | --- | --- | --- | --- |
| Nc1ccc(-c2ccccc2)nc1NC(=O)c1ccc(N2CCOCC2)nc1 [Example 4, N-(3-amino-6-phenylpyridin-2-yl)-6-morpholinonicotinamide] | > 6.70 | – | – | – | – | – |
| Nc1ccc(-c2ccc(F)cc2)nc1NC(=O)c1ccc(N2CCOCC2)nc1 [Example 5, N-(3-amino-6-(4-fluorophenyl)pyridin-2-yl)-6-morpholinonicotinamide] | > 6.70 | ≤ 4.30 | 4.30 to 6.00 | ≤ 4.30 | > 6.70 | – |
| Nc1ccc(-c2ccccc2)nc1NC(=O)c1cnc(NC2CC2)nc1 [Example 16, N-(3-amino-6-phenylpyridin-2-yl)-2-(cyclopropylamino)pyrimidine-5-carboxamide] | > 6.70 | – | – | – | – | – |
| N#Cc1cccc(-c2ccc(C(=O)Nc3nc(-c4ccc(F)cc4)ccc3N)cn2)c1 [Example 22, N-(3-amino-6-(4-fluorophenyl)pyridin-2-yl)-6-(3-cyanophenyl)nicotinamide] | 6.00 to 6.70 | – | – | – | – | – |
| COc1ccc(-c2ccc(N)c(NC(=O)c3ccc(N4CCN(C)CC4)nc3)n2)cc1 [Example 7, N-(3-amino-6-(4-methoxyphenyl)pyridin-2-yl)-6-(4-methylpiperazin-1-yl)nicotinamide] | 6.00 to 6.70 | – | – | – | – | – |
| CN1CCN(c2ncc(C(=O)Nc3nc(-c4ccc(F)cc4)ccc3N)cn2)CC1 [Example 15, N-(3-amino-6-(4-fluorophenyl)pyridin-2-yl)-2-(4-methylpiperazin-1-yl)pyrimidine-5-carboxamide] | > 6.70 | – | – | – | – | – |
| CN1CCN(c2ccc(C(=O)Nc3nc(-c4ccc(F)c(F)c4)ccc3N)cn2)CC1 [Example 9, N-(3-amino-6-(3,4-difluorophenyl)pyridin-2-yl)-6-(4-methylpiperazin-1-yl)nicotinamide] | 6.00 to 6.70 | – | – | – | – | – |
| Nc1ccc(-c2ccc(F)cc2)nc1NC(=O)c1ccc(N2CCC(N)CC2)nc1 [Example 27, N-(3-amino-6-(4-fluorophenyl)pyridin-2-yl)-6-(4-aminopiperidin-1-yl)nicotinamide] | > 6.70 | ≤ 4.30 | 4.30 to 6.00 | – | > 6.70 | 4.30 to 6.00 |
| Nc1ccc(-c2ccc(F)cc2)nc1NC(=O)c1cnc(NC2CC2)nc1 [Example 17, N-(3-amino-6-(4-fluorophenyl)pyridin-2-yl)-2-(cyclopropylamino)pyrimidine-5-carboxamide] | > 6.70 | ≤ 4.30 | ≤ 4.30 | – | 4.30 to 6.00 | – |
| CN1CCN(c2ccc(C(=O)Nc3nc(-c4ccc(F)cc4)ccc3N)cn2)CC1 [Example 6, N-(3-amino-6-(4-fluorophenyl)pyridin-2-yl)-6-(4-methylpiperazin-1-yl)nicotinamide] | > 6.70 | ≤ 4.30 | 4.30 to 6.00 | ≤ 4.30 | > 6.70 | ≤ 4.30 |
| CN1CCN(c2ccc(C(=O)Nc3nc(-c4cccs4)ccc3N)cn2)CC1 [Example 29, N-(3-amino-6-(thiophen-2-yl)pyridin-2-yl)-6-(4-methylpiperazin-1-yl)nicotinamide] | > 6.70 | 4.30 to 6.00 | 4.30 to 6.00 | – | > 6.70 | 4.30 to 6.00 |
| N-(3-amino-6-(4-fluorophenyl)pyridin-2-yl)-6-(4-methylpiperazin-1-yl)nicotinamide [Example 13] | > 6.70 | – | – | – | – | – |
| Nc1ccc(-c2ccc(F)cc2)nc1NC(=O)c1ccc(N2CCNCC2)nc1 [Example 25, N-(3-amino-6-(4-fluorophenyl)pyridin-2-yl)-6-(piperazin-1-yl)nicotinamide] | > 6.70 | ≤ 4.30 | 4.30 to 6.00 | ≤ 4.30 | 6.00 to 6.70 | 4.30 to 6.00 |
| CN1CCN(c2ccc(C(=O)Nc3nc(-c4ccncc4)ccc3N)cn2)CC1 [Example 8, N-(5-amino-[2,4′-bipyridin]-6-yl)-6-(4-methylpiperazin-1-yl)nicotinamide] | 6.00 to 6.70 | – | – | – | – | – |
| CN1CCN(c2ncc(C(=O)Nc3nc(-c4ccccc4)ccc3N)cn2)CC1 [Example 10, N-(3-amino-6-phenylpyridin-2-yl)-2-(4-methylpiperazin-1-yl)pyrimidine-5-carboxamide] | > 6.70 | – | – | – | – | – |
| Nc1ccc(-c2ccc(F)cc2)nc1NC(=O)c1ccc(-c2cccnc2)nc1 [Example 21, N-(3-amino-6-(4-fluorophenyl)pyridin-2-yl)-[2,3′-bipyridine]-5-carboxamide] | 6.00 to 6.70 | – | – | – | – | – |
| Nc1ccc(-c2ccc(F)cc2)nc1NC(=O)c1cccnc1 [Example 3, N-(3-amino-6-(4-fluorophenyl)pyridin-2-yl)nicotinamide] | > 6.70 | – | – | – | – | – |
| Nc1ccc(-c2ccc(F)cc2)nc1NC(=O)c1cnc(N2CCOCC2)nc1 [Example 14, N-(3-amino-6-(4-fluorophenyl)pyridin-2-yl)-2-morpholinopyrimidine-5-carboxamide] | > 6.70 | – | – | – | – | – |
| CN1CCN(CCNc2ccc(C(=O)Nc3nc(-c4ccc(F)cc4)ccc3N)cn2)CC1 [Example 30, N-(3-amino-6-(4-fluorophenyl)pyridin-2-yl)-6-((2-(4-methylpiperazin-1-yl)ethyl)amino)nicotinamide] | > 6.70 | – | – | – | – | – |
| CN1CCN(c2ccc(C(=O)Nc3nc(-c4ccccc4)ccc3N)cn2)CC1 [Example 1, N-(3-amino-6-phenylpyridin-2-yl)-6-(4-methylpiperazin-1-yl)nicotinamide] | > 6.70 | – | – | – | – | – |
| Nc1ccc(-c2ccccc2)nc1NC(=O)c1cccnc1 [Example 2, N-(3-amino-6-phenylpyridin-2-yl)nicotinamide] | > 6.70 | – | – | – | – | – |
